≈ marks a conversion by molar mass, not a printed value.
What was measured:
[1] = test system: C. neoformans var grubii, KN99; test: Inhibition of C. neoformans growth, limiting dilution assay (MIC); type: cell-based; details: for MIC80: KN99α, minimal concentration inhibiting 80% of growth relative to vehicle; for activity against C. neoformans (in words): MIC assay
Procedure: Strains and media. All inhibition assays were performed with C. neoformans var grubii, KN99 (serotype A, MATα; kindly provided by Jennifer Lodge). Two clinical strains of C. neoformans var grubii, serotype A, were kindly provided by Tamara Doering and Andre Spec. […] Each assay was done in triplicate and all values are the average of two or more independent assays. The data are presented as the average cell density as a percent of DMSO-only treated cells. […] However, these conditions are unlike conditions encountered by C. neoformans in mammalian infections, where nutrients are limited, and the pH and temperature are higher than in YPD media. The cryptococcal stress response to low glucose and high pH and temperature may alter its susceptibility to the inhibitors. It is also possible that the enzymes targeted by the inhibitors may render the cell temperature sensitive when inhibited. To better mimic growth in mammals, growth was tested without shaking in nutrient-limited media at 35° C. […] However, as the nutrient-limited media and higher temperature is more similar to mammalian cell growth conditions, these conditions were used for all further assays. […] All values were measured at least two times in independent experiments and the average MIC is reported.

[2] = Cytotoxicity in hepatoma cells (MTS); details: human, HepDES19 cells
Procedure: (§1) HepDES19 cells (1.0×10^4 cells per well) were seeded in 96-well plates and incubated in DMEM with 10% fetal bovine serum (FBS) plus 1% penicillin and streptomycin, 1% nonessential amino acids, and 1% glutamine. The compounds were diluted in the medium at concentrations ranging from 0.78 to 100 μM plus 1% DMSO and added to the cells 48 hours after plating, with each concentration tested in triplicate. Cells were incubated with the compound for 72 hours and cytotoxicity was measured using a mitochondrial metabolic assay with MTS (Promega). The data were transformed to log[inhibitor] and fit to a 4-variable slope curve using GraphPad Prism (v6, www.graphpad.com).
(§2) Three days later, the MTS reagent was added for 90 minutes prior to terminating the incubation period and reading the OD480.

HepDES19 cells = test: Cytotoxicity in hepatoma cells (MTS); details: 72 hours, MTS
Procedure: as §1, §2

Wild-type KN99α = test: Screening of 1-Hydroxy-1,8-naphthyridin-2(1H)-one (HNO) compounds for growth inhibition; type: cell-based, C. neoformans; details: Cryptococcus neoformans; growth inhibited >80%
Procedure: FIG. 1. Results from screening 8 napthyridinone derivatives. Wild-type KN99α at a starting density of 0.0005 was treated with the compounds at 4 μM, 15 μM, and 60 μM in nutrient-limiting media (YNB, pH 7)+1% DMSO at 35° C. for 48 hours. Bars represent the average cell density of at least three replicates as percent of untreated cells.
Eight compounds in the 1-Hydroxy-1,8-naphthyridin-2(1H)-one (HNO) chemical family were also tested. Three compounds, #149, #153 and #154, inhibited growth of C. neoformans >80% with MICs of ˜10 μM, ˜4 μM and ˜20 μM respectively.

[3] = Cryptococcus neoformans, YNB-02+1% DMSO, 35° C., 48 hours
[4] = CC50, HepDES19 cells, 72 hours, MTS
[5] = YNB-02+1% DMSO, 35° C., 48 hours

| Compound | MIC80 [1, 3] | CC50 at 72 h [2, 4] | other results |
| --- | --- | --- | --- |
| Cc1cc(O)c(=O)c(O)cc1-c1ccc(Br)cc1 [Compound 114] | 11 µM (≈ 3.38 µg/mL) | 18.6 µM | – |
| O=Nc1ccc(O)c(=O)cc1 [Compound 50, 5-nitrosotropolone] | – | – | MIC80 [1, 5]: 24 µM (≈ 3.63 µg/mL); CC50 (HepDES19 cells): 17.5 µM |
| Cc1cc(O)c(=O)c(O)cc1C(=O)c1cccs1 [Compound 308, 4-(thiopene-2-carbonyl)-2,7-dihydroxy-5-methylcyclohepta-2,4,6-trien-1-one] | 11 µM (≈ 2.89 µg/mL) | 24 µM | – |
| Cc1ccc(CSc2cccccc2=O)cc1 [Compound 365] | – | – | MIC ([1]; Cryptococcus neoformans, Table 3, similar methods to Table 2): > 50 µM; CC50 at 72 h ([2]; CC50, Table 3, similar methods to Table 2): > 100 µM |
| Cc1cc(O)c(=O)c(O)cc1-c1ccc(C(F)(F)F)cc1 [Compound 145] | 15 µM (≈ 4.44 µg/mL) | 11 µM | – |
| Purpurogallin [Compound 195] | – | – | MIC80 [1, 5]: 50 µM; activity against C. neoformans (in words) [1]: largely ineffective; CC50 (HepDES19 cells): 92 µM |
| O=C(Oc1cccccc1=O)c1ccc(Cl)cc1 [Compound 63] | 17 µM (≈ 4.43 µg/mL) | 100 µM | – |
| Cc1cc(O)c(=O)c(O)cc1C(=O)C(C)C [Compound 143] | 50 µM (≈ 11.1 µg/mL) | > 100 µM | MIC [1, 3]: ≥ 50 µM |
| O=c1c(O)ccc(-c2ccco2)cc1O [Compound 265, 4-(furan-2-yl)-2,7-dihydroxycyclohepta-2,4,6-trien-1-one] | – | – | MIC [1, 3]: ≤ 15 µM |
| COC(=O)c1c2c(cc(O)c(=O)c1O)COC2=O [Compound 280, Methyl 5,7-dihydroxy-3,6-dioxo-3,6-dihydro-1H-cyclohepta[c]furan-4-carboxylate] | 50 µM (≈ 12.6 µg/mL) | 66 µM | – |
| COC(=O)c1cc(O)c(=O)c(OC)cc1C [Compound 273] | 50 µM (≈ 11.2 µg/mL) | 100 µM | activity against C. neoformans (in words) [1]: no activity |
| CC(C)=CCc1ccc(=O)c(O)cc1C(C)C [Compound 49, Nootkatin] | 18 µM (≈ 4.18 µg/mL) | 18.5 µM | – |
| Cc1cc(O)c(=O)c(O)cc1-c1cccc2ccccc12 [Compound 146] | 20 µM (≈ 5.57 µg/mL) | 20 µM | – |
| COc1ccc(C(=O)c2cc(O)c(=O)c(O)cc2C)cc1 [Compound 312, 4-(4-methoxybenzoyl)-2,7-dihydroxy-5-methylcyclohepta-2,4,6-trien-1-one] | 18 µM (≈ 5.15 µg/mL) | 18 µM | – |
| Cc1cc(O)c(=O)c(O)cc1C(=O)O [Compound 319, 4,6-dihydroxy-2-methyl-5-oxocyclohepta-1,3,6-triene-1-carboxylic Acid] | 50 µM (≈ 9.81 µg/mL) | > 100 µM | MIC [1, 3]: ≥ 50 µM |
| Cc1cc(O)c(=O)c(O)cc1C(=O)c1ccc2ccccc2c1 [Compound 315, 4-(2-naphthoyl)-2,7-dihydroxy-5-methylcyclohepta-2,4,6-trien-1-one] | 24 µM (≈ 7.35 µg/mL) | 17 µM | – |
| C=C(C)C1CCc2c(c(C)cc(O)c(=O)c2O)C1 (centres unmarked) [Compound 56, Manicol] | 50 µM (≈ 12.3 µg/mL) | 27 µM | – |
| COC(=O)c1c(C)cc(O)c(=O)c(O)c1C(=O)OC [Compound 106] | 41 µM (≈ 11 µg/mL) | 24.5 µM | – |
| COC(=O)c1c(CCl)cc(O)c(=O)c(O)c1C(=O)OC [Compound 107] | 50 µM (≈ 15.1 µg/mL) | 85.5 µM | – |
| Cc1cc(O)c(=O)c(O)cc1C(=O)c1ccc([N+](=O)[O-])cc1 [Compound 313, 2,7-dihydroxy-4-methyl-5-(4-nitrobenzoyl)cyclohepta-2,4,6-trien-1-one] | 24 µM (≈ 7.23 µg/mL) | 46 µM | – |
| CC(=O)NC(CCc1ccc(Cl)c(Cl)c1)c1cccc(O)c(=O)c1 (centres unmarked) [Compound 55] | 6 µM (≈ 2.2 µg/mL) | 4.3 µM | CC50 at 72 h ([2]; CC50, HepDES19, MTS): 4 µM |
| Cc1ccc(S(=O)(=O)Oc2cccccc2=O)cc1 [Compound 61] | 41 µM (≈ 11.3 µg/mL) | 30.5 µM | CC50 at 72 h ([2]; CC50, HepDES19, MTS): 30.5 µM |
| O=c1c(O)ccccc1O [Compound 172, 7-Hydroxytropolone] | 24 µM (≈ 3.31 µg/mL) | 100 µM | MIC [1, 3]: 24 µM (≈ 3.31 µg/mL); activity against C. neoformans (in words) [1]: little activity |
| Cc1cc(O)c(=O)c(O)cc1C(=O)c1ccccc1 [Compound 111] | 36 µM (≈ 9.23 µg/mL) | 26.3 µM | – |
| NCc1cccc(-c2ccc(Cc3cc(=O)n(O)c4ncccc34)cc2)c1 [Compound 153] | – | – | MIC (Wild-type KN99α): ~4 µM (≈ 1.43 µg/mL) |

Source: patent US10980754B2, “Anti-fungal compounds” (SAINT LOUIS UNIVERSITY, priority 2016, dated 2021)
